Values quoted from earlier work, collected in US12178814B2, “Pharmaceutical composition” (ASTELLAS PHARMA INC., priority 2019, dated 2024).

Tested on: EML4 (Echinoderm microtubule associated protein like-4)-ALK (Anaplastic lymphoma kinase) fusion protein
Settings: reported in WO2010/128659, WO2017/006855

CCc1nc(C(N)=O)c(Nc2ccc(N3CCC(N4CCN(C)CC4)CC3)c(OC)c2)nc1NC1CCOCC1 [gilteritinib, 6-Ethyl-3-{3-methoxy-4-[4-(4-methylpiperazin-1-yl)piperidin-1-yl]anilino}-5-[(oxan-4-yl)amino]pyrazine-2-carboxamide]
inhibitory activity of a kinase activity of EML4-ALK fusion protein: inhibitory activity
